pEC50: −log10 of the molar value. Activity calls are given as the source filed them. No cut-off for these calls is given here.
Tests used:
[1] = Inhibition of human huntingtin N548 mutant expressed in rat ST14A cells assessed as decrease in cell death; type: cell-based
[2] = Cytotoxicity against rat ST14A cells transfected with human htt gene; type: cell-based; settings: read-out: TC50 (the source's name)
[3] = Inhibition of human huntingtin Q103 mutant expressed in rat PC12 cells assessed as decrease in cell death; type: cell-based, PC-12; settings: for EC50: pc-12; for pEC50: PC-12, read-out: EC50
Saccharomyces cerevisiae = assay: Inhibition of huntingtin in Saccharomyces cerevisiae coexpressing exon 1 fragments with polyQ region Huntington disease (HD) model assessed as increase in cell viability
neuronal = assay: Inhibition of huntingtin mutant in Caenorhabditis elegans ASH neuronal cell Huntington disease model assessed as cell viability; type: cell-based
PC-12 = assay: Inhibition of human huntingtin Q103 mutant expressed in rat PC12 cells assessed as decrease in cell death relative to control; type: cell-based; set-up: concentration or dose not given beside the values
ST14A [4] = assay: Inhibition of rat ST14A cell death expressing human huntingtin N548 mutant assessed as inhibition of cell death at 50 uM after 6 hrs by fluorimetry; type: functional, cell-based
ST14A [5] = assay: Inhibition of rat ST14A cell death assessed as inhibition of cell death at 50 uM after 6 hrs by fluorimetry; type: functional, cell-based
Brain = assay: Inhibition of medium spiny neuron degeneration in rat brain slice Huntington disease (HD) model after 4 days; type: functional, tissue-based
ST14A [6] = assay: Inhibition of apoptosis in rat ST14A cells transfected with human htt gene assessed as inhibition of caspase 3 cleavage by Western blot method; type: functional, cell-based
ST14A [7] = assay: Inhibition of apoptosis in rat ST14A cells transfected with human htt gene assessed as inhibition of caspase 7 cleavage by Western blot method; type: functional, cell-based
ST14A [8] = assay: Inhibition of cell death in rat ST14A cells assessed as cell viability; type: functional, cell-based

SMILES	pEC50 [1]	CC50 [2] [µM]	EC50 [3]	inhibition (Saccharomyces cerevisiae)	inhibition (neuronal)	pEC50 [3]	inhibition (PC-12) [%]	inhibition (ST14A [4])	inhibition (ST14A [5])	INH (neuronal) [mM]	inhibition (Brain)	inhibition (ST14A [6])	inhibition (ST14A [7])	inhibition (ST14A [8])
CCCCCCN(C(=O)CCCC)C(C)c1nc2ccccc2c(=O)n1-c1ccccc1OC (stereo not drawn)	5.05	26	Not Active	inactive	inactive									
CCCCCCCCC(=O)N(Cc1ccco1)C(C)c1nc2ccccc2c(=O)n1-c1cc(C)ccc1C (stereo not drawn)	5.70	39		inactive	inactive	4.30	25							
Cc1nc2c(O)c(Br)ccn2c(=O)c1Br	5.70	24	Not Active	inactive	inactive									
CC(=O)N(C1=C(N(C)C)C(=O)c2ccccc2C1=O)c1ccc(Br)cc1	5.30	29	Not Active	inactive	inactive									
CC(C)C1=CCC2C(=C1)CCC1[C@@]2(C)CCC[C@]1(C)C(=O)O (stereo partly drawn)	5.15	53	Not Active	inactive	inactive									
O=c1[nH]c2c(c(=O)[nH]1)C(c1cccc([N+](=O)[O-])c1)C=C(c1ccccc1)O2 (stereo not drawn)	5.52	110	Not Active	inactive	inactive									
CCCCc1ccc(C(=O)N(CCC(=O)N2CCC(Cc3ccccc3)CC2)Cc2ccco2)cc1	5.30	41		inactive	inactive	4.22	27							
COc1ccc(C(CCN(CC2CCOC(C)(C)C2)C(C)=O)c2ccccc2)cc1 (stereo not drawn)	5.00	49	Not Active	inactive	inactive									
COc1ccc(CN(CCC2(c3ccccc3)CCOC(C)(C)C2)C(=O)c2ccco2)cc1OC (stereo not drawn)	5.30	50	Not Active	inactive	inactive									
COC1=CC2C(=O)C(=O)N3C2C(=C1)[C@H](C)CC3(C)C (stereo partly drawn)	4.80	77	Not Active	inactive	inactive									
CC1=NN(C(N)=S)C(=O)/C1=N/Nc1ccccc1C(F)(F)F	5.15	49	Not Active	inactive	inactive									
CCOC(=O)c1cccc(NS(=O)(=O)c2ccc(OC)cc2)c1	4.82	119	Not Active	inactive	inactive									
CC1=NC(Nc2nc(C)c3cc(C)c(C)cc3n2)=NC(C)(C)C1	5.15	32	Not Active	inactive	inactive									
COC(=O)C[C@H](NC(=O)OC(C)(C)C)C(=O)CF								Dose-dependent effect	Dose-dependent effect					
COc1c2c(cc3c1C(CC(=O)/C=C/c1ccco1)[N+](C)(C)CC3)OCO2 (stereo not drawn)	5.05	80		inactive		4.66	34			2.2	inactive	Active	inactive	
Cc1ccc(-c2nc(NS(=O)(=O)c3ccc(Cl)cc3)sc2C)cc1	4.96	42	Not Active	inactive	inactive									
Oc1ccc2c(c1)CC1NCCc3cc(O)c(O)c-2c31 (stereo not drawn)	4.82	74	Not Active	inactive	inactive									
CCCN1C(=O)C(=O)c2cc(C)ccc21	5.30	98	Not Active	inactive	inactive									
O=C(Cc1cccs1)/C(=N/NC(=O)c1cccc(Br)c1)C(F)(F)F	5.30	48	Not Active	inactive	inactive									inactive
CCCc1ccc(CC2=C(O)C(=O)c3ccccc3C2=O)cc1	5.15	65	Not Active	inactive	inactive									
CCCc1cc(OC(=O)c2ccccc2F)n(-c2cccc(F)c2)n1	4.92	235		inactive		3.84	21			3	Active	Active	inactive	inactive
COc1ccccc1C(CCN(C(C)=O)C(C)c1ccccc1)C1CCC(C)(C)OC1 (stereo not drawn)	5.30	47	Not Active	inactive	inactive									
CC(C)CC(NC(=O)OCc1ccccc1)C(=O)Oc1ccc2c(=O)c(-c3ccc([N+](=O)[O-])cc3)coc2c1 (stereo not drawn)	5.10	38	Not Active	inactive	inactive									
CC1(C)C(C=C(Cl)Cl)C1C(=O)C1=C(O)CCCC1=O (stereo not drawn)	5.00	79	Not Active	inactive	inactive									
CC1CN(C(C)c2nc3ccccc3c(=O)n2-c2ccc(F)cc2)CCC1C(=O)C1CC1 (stereo not drawn)	5.30	37	Not Active	inactive	inactive									
CCCCCCCCCC(=O)Oc1cc(-c2ccccc2)nn1-c1cccc(C)c1	5.00	75		inactive	inactive	4.00	23				inactive			
NNc1nnc(-c2ccccc2)c2ccccc12	5.30	102		inactive	inactive	5.10	18							
CCC1CN2CCc3cc(OC)c(OC)cc3C2CC1CC1c2cc(OC)c(OC)cc2CCN1C(=O)c1ccco1 (stereo not drawn)	5.22	42	Not Active	inactive	inactive									
COc1cc2c(cc1OC)C(C)N(C(=O)NCc1ccccc1)CC2 (stereo not drawn)	5.52	47	Not Active	inactive	inactive									
CCCc1cc(OC(=O)C(CC)c2ccccc2)n(-c2cccc(F)c2)n1 (stereo not drawn)	4.96	218	Not Active	inactive	inactive						Active			
